Results reported in patent US8450342B2, “Perharidines as CDK inhibitors” (Centre Nationale de la Recherche Scientifique, priority 2008, dated 2013).
Read-outs that look alike come from different tables or passages of the source.

Legend:
GSK-3α/β = GSK-3α/β kinase assay; type: biochemical, porcine
Description: (§1) Blank values were subtracted and activities expressed in % of the maximal activity, i.e. in the absence of inhibitors. Controls were performed with appropriate dilutions of dimethylsulfoxide.

[1] = system: retinoblastoma protein phosphorylation; experiment: Western blot, retinoblastoma protein phosphorylation on CDK2/CDK4 sites in SH-SY5Y; type: cell-based, human; conditions: for total Rb: FIG. 8
Description: (§2) SH-SY5Y human neuroblastoma cells were grown in DMEM medium (Invitrogen, Cergy Pontoise, France). […] Human foreskin primary fibroblasts (kindly provided by Dr. Gilles Ponzio) were grown in DMEM supplemented with 2 mM L-glutamine and 20 mM HEPES. All the media were supplemented with antibiotics (penicillin-streptomycin) from Lonza and 10% volume of FCS from Invitrogen. Cells were cultured at 37° C. with 5% CO2. Drug treatments were performed on exponentially growing cultures at the indicated time and concentrations. Control experiments were carried out using appropriate dilutions of DMSO. MDCK cell-lines were used to test compounds PKD.
(§3) Cells were resuspended and lysed for 30 minutes at 4° C. in Homogenization Buffer [60 mM β-glycerophosphate, 15 mM p-nitrophenyl phosphate, 25 mM MOPS (pH 7.2), 15 mM EGTA, 15 mM MgCl2, 1 mM dithiothreitol, 1 mM sodium vanadate, 1 mM NaF, 1 mM phenylphosphate, 0.1% Nonidet P-40 and protease inhibitor cocktail] and sonicated. After centrifugation (14000 rpm for 15 minutes at 4° C.), the protein concentration was determined in the supernatants by the Bradford protein assay (Bio-Rad).
(§4) Whole cell extracts were prepared in buffer containing 100 mM Tris/HCl (pH, 6.8), 1 mM EDTA, 2% SDS and protease inhibitor cocktail. Following heat denaturation for 5 minutes, proteins were separated on 10% or 7% NuPAGE pre-cast Bis-Tris or Tris-Acetate polyacrylamide mini gels (Invitrogen) with MOPS SDS (all but cytochrome C, RNA polymerase II and phospho-Ser2—RNA polymerase II Western blots), MES SDS (cytochrome C), or Tris-Acetate SDS (RNA polymerase II and phospho-Ser2—RNA polymerase II) running buffer depending on protein size. Proteins were transferred to 0.45 μm nitrocellulose filters (Schleicher and Schuell). These were blocked with 5% low fat milk in Tris-Buffered Saline—Tween-20, incubated for 1 h with antibodies (anti-actin: 1:2000) or overnight at 4° C. (cytochome C: 1:500), Rb (1:500), phosphor-Rb (1:500), phospho-Thr320-PP1α (1:1000), RNA polymerase II (1:500), phosphor-Ser2-RNA polymerase II (1:500), Mcl-1 (1:500), caspase-9 (1:1000) and analyzed by Enhanced Chemiluminescence (ECL, Amersham).

CDK9/cyclin T = target: T1, CDK9/cyclin T (Homo sapiens, UniProt P50750); experiment: CDK9/cyclin T kinase assay; type: biochemical; conditions: Table 5; read-out: CDK9/cyclin T
T1 construct: made in house; host or cells: insect cells
T1 sequence (P50750 whole entry): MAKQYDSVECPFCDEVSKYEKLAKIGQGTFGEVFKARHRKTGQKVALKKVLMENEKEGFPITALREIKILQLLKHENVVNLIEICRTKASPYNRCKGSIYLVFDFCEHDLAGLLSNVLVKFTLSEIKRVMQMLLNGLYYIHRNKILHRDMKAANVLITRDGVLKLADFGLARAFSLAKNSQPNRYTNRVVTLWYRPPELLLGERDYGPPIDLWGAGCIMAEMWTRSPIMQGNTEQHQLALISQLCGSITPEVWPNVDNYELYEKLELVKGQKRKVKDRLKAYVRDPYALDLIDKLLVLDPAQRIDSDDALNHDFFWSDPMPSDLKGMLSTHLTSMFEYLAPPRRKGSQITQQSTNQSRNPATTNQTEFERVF
T1 sequence (O60563 whole entry partner): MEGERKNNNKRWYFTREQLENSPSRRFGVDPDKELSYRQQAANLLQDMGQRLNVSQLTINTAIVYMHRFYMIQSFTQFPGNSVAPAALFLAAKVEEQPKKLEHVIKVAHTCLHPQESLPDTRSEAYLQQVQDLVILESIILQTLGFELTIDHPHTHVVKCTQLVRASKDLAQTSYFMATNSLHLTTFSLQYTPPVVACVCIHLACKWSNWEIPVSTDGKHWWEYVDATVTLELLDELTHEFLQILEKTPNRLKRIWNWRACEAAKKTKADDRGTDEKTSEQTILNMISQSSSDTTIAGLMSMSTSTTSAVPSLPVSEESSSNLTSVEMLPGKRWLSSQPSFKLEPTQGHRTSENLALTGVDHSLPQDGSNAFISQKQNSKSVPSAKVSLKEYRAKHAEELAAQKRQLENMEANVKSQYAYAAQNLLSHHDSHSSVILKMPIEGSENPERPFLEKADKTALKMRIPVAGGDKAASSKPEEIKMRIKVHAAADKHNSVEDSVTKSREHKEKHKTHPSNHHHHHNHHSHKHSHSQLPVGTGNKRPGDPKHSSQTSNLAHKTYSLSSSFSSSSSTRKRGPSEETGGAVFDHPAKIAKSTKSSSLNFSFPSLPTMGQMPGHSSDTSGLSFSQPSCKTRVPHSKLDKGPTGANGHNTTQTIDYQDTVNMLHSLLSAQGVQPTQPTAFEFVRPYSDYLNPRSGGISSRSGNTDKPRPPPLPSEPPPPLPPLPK
Description: as §1

[2] = system: SH-SY5Y human neuroblastoma cells; experiment: Cell survival (MTS assay), SH-SY5Y; type: cell-based; conditions: read-out: SH-SY5Y cell survival
Description: as §2

Erk2 = Erk2 (Homo sapiens, UniProt P28482); experiment: Erk2 kinase assay; type: biochemical; conditions: Table 5
Chain of Erk2 (P28482 whole entry, species assumed): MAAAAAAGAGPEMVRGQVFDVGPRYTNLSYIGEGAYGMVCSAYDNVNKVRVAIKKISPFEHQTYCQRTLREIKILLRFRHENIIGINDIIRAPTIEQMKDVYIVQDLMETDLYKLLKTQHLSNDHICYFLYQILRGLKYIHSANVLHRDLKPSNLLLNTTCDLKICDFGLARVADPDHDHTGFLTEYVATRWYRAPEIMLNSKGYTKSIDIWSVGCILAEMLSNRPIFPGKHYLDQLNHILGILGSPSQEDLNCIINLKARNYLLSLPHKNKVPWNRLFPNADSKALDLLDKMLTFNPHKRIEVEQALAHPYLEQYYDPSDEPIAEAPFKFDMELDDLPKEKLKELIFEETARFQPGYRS
Description: as §1
(§5) The compounds were tested at various concentrations in the kinase assays, as described in the Methods section.

CDK5/p25 = target: T2, CDK5/p25 (Homo sapiens, UniProt Q00535); experiment: CDK5/p25 kinase assay; type: biochemical
T2 construct: made in house
T2 sequence (Q00535 whole entry): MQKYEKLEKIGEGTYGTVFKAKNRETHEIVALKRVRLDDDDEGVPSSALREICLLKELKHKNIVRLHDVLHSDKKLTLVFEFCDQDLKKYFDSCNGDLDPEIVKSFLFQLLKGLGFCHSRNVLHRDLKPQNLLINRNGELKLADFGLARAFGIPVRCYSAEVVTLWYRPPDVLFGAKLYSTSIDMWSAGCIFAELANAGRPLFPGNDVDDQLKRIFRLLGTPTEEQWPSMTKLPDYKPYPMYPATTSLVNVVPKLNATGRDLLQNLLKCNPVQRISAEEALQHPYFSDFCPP
T2 sequence (Q15078 99-307 partner limits assumed): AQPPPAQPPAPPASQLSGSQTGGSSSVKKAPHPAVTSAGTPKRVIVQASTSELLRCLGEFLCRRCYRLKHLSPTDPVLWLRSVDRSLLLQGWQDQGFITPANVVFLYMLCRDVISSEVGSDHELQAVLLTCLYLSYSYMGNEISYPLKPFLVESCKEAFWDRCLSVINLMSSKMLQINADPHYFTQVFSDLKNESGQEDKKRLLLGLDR
Description: (§6) Controls were performed with appropriate dilutions of dimethylsulfoxide.
(§7) ATP (3,000 Ci/mmol; 10 mCi/ml) in a final volume of 30 μl. After 30 min. incubation at 30° C., 25 μl aliquots of supernatant were spotted onto 2.5×3 cm pieces of Whatman P81 phosphocellulose paper, and, 20 sec. later, the filters were washed five times (for at least 5 min. each time) in a solution of 10 ml phosphoric acid/liter of water. The wet filters were counted in the presence of 1 ml ACS (Amersham) scintillation fluid.

CDK7/cyclin H = CDK7/cyclin H (Homo sapiens, UniProt P50613); experiment: CDK7/cyclin H kinase assay; type: biochemical; conditions: Table 4
Chain of CDK7/cyclin H (P50613 whole entry, species assumed): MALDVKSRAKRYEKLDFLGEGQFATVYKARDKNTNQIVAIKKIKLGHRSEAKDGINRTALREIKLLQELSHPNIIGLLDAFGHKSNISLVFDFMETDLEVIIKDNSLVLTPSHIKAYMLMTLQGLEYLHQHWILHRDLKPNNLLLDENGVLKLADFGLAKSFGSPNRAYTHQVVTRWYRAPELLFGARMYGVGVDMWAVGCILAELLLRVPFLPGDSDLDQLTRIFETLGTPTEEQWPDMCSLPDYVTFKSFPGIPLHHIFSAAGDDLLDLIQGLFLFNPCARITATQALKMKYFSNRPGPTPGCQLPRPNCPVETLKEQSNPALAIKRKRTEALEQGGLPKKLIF
Chain of CDK7/cyclin H (P51946 whole entry partner, species assumed): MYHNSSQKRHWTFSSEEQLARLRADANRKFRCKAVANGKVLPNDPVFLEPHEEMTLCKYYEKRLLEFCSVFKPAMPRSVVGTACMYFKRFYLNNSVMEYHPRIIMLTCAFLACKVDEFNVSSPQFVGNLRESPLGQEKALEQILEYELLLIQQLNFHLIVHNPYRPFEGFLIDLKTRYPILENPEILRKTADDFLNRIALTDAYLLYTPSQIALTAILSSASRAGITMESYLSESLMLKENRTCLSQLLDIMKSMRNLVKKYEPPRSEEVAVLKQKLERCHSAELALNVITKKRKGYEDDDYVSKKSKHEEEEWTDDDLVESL
Description: as §1, §5

B2-CLL lymphocytes = experiment: Survival / cell death of B2-CLL lymphocytes from patients; type: cell-based, human
Description: Cell viability was determined by measuring the reduction of 3-(4,5-dimethylthiazol-2-yl)-5-(3-carboxymethoxyphenyl)-2-(4-sulfophenyl)-2/H-tetrazolium (MTS). Cell death was determined by measuring the level of lactate dehydrogenase activity (LDH) released upon cell lysis.

LS 174T = experiment: Cell survival, LS 174T; type: cell-based; conditions: Homo sapiens, LS174T; Table 6
Description: Cell viability was determined by measuring the reduction of 3-(4,5-dimethylthiazol-2-yl)-5-(3-carboxymethoxyphenyl)-2-(4-sulfophenyl)-2H-tetrazolium (MTS). Cell death was determined by measuring the level of lactate dehydrogenase activity (LDH) released upon cell lysis.

[3] = system: HEK 293 human embryonic kidney cell line; experiment: Cell survival (MTS assay), HEK293; type: cell-based
Description: as §2

[4] = system: RNA polymerase II Ser2 phosphorylation; experiment: Western blot, RNA polymerase II Ser2 phosphorylation in SH-SY5Y; type: cell-based, human; conditions: for total RNA pol II: FIG. 10
Description: (§8) SH-SY5Y human neuroblastoma cells were grown in DMEM medium (Invitrogen, Cergy Pontoise, France). The HEK 293 human embryonic kidney cell line was grown in MEM medium from Invitrogen. Human foreskin primary fibroblasts (kindly provided by Dr. Gilles Ponzio) were grown in DMEM supplemented with 2 mM L-glutamine and 20 mM HEPES. All the media were supplemented with antibiotics (penicillin-streptomycin) from Lonza and 10% volume of FCS from Invitrogen. Cells were cultured at 37° C. with 5% CO2. Drug treatments were performed on exponentially growing cultures at the indicated time and concentrations. Control experiments were carried out using appropriate dilutions of DMSO. MDCK cell-lines were used to test compounds PKD.
as §3, §4

CK1δ/ε = experiment: CK1 kinase assay; type: biochemical, porcine; conditions: read-out: CK1
Description: as §1

CDK1/cyclin B = CDK1/cyclin B kinase assay; type: biochemical, starfish
Description: as §6, §7

CDK2/cyclin E = CDK2/cyclin E (Homo sapiens, UniProt P24941); experiment: CDK2/cyclin E kinase assay; type: biochemical; conditions: Table 5
Description: as §6, §5

HCT116 (Spheroids) = experiment: Cell survival, HCT116 (Spheroids); type: cell-based; conditions: Homo sapiens, HCT-116; Table 6
CDK2/cyclin A = target: T3, CDK2/cyclin A (Homo sapiens, UniProt P24941); experiment: CDK2/cyclin A kinase assay; type: biochemical; conditions: Table 5; read-out: CDK2/cyclin A
T3 construct: made in house; host or cells: insect cells
Description: as §1
CDK2/cyclin A (human, recombinant, expressed in insect cells) was assayed as described for CDK1/cyclin B.

DYRK1A = DYRK1A (Homo sapiens, UniProt Q13627); experiment: DYRK1A kinase assay; type: biochemical; conditions: Table 5; read-out: DYRK1A
Description: as §1, §5

p27 total protein = experiment: Western blot, p27 total protein in SH-SY5Y; type: cell-based, human; conditions: FIG. 14, compared with (R)-Roscovitine
Description: as §8, §3
(§9) Whole cell extracts were prepared in buffer containing 100 mM Tris/HCl (pH, 6.8), 1 mM EDTA, 2% SDS and protease inhibitor cocktail. […]

LS 174T (Oncodesign) = experiment: Cell survival, LS 174T (Oncodesign); type: cell-based; conditions: Homo sapiens, LS174T; Table 6
HCT116 (Oncodesign) = experiment: Cell survival, HCT116 (Oncodesign); type: cell-based; conditions: Homo sapiens, HCT-116; Table 6
[5] = system: protein phosphatase 1-α Thr320 phosphorylation; experiment: Western blot, protein phosphatase 1-α phosphorylation on Thr320 in SH-SY5Y; type: cell-based, human; conditions: FIG. 11, compared with (R)-Roscovitine
Description: as §8, §3, §9

Mcl-1 = experiment: Western blot, survival factor Mcl-1 in SH-SY5Y; type: cell-based, human; conditions: FIG. 12, compared with (R)-Roscovitine
Description: as §8, §3, §9

p53 total protein = experiment: Western blot, p53 total protein in SH-SY5Y; type: cell-based, human; conditions: FIG. 13, compared with (R)-Roscovitine
Description: as §8, §3, §9

PARP cleavage = experiment: Western blot, PARP cleavage in SH-SY5Y; type: cell-based, human; conditions: FIG. 15, compared with (R)-Roscovitine
Description: as §8, §3, §9

cell lines = experiment: Anti-proliferative activities on cell lines, summary; type: cell-based; conditions: in words; listed as formula Ib
[6] = Homo sapiens, Lymphocyte, LLC B-cells, read-out: Cell death induction
[7] = Homo sapiens, Lymphocyte, Table 6, read-out: Chronic Lymphocytic Leukemia cell survival
[8] = Table 5, read-out: CDK1/cyclin B

CC[C@H](CO)Nc1cc(NCc2ccccc2)c2ncn(C(C)C)c2n1 [(R)-perharidine A]
IC50 (GSK-3α/β; Table 4, read-out: GSK3): > 30000 nM | IC50 (GSK-3α/β; Table 5, read-out: GSK-3α/β): > 100000 nM | total Rb [1]: essentially constant | IC50 (CDK9/cyclin T): 480 nM | IC50 ([2]; Table 4, MTS assay): 16200 nM | IC50 ([2]; Table 6, MTS assay): 14300 nM | IC50 (Erk2): 7000 nM | IC50 (CDK5/p25; Table 4, read-out: CDK5): 200 nM | IC50 (CDK5/p25; Table 5, read-out: CDK5/p25): 400 nM | IC50 (CDK7/cyclin H): 900 nM | IC50 (B2-CLL lymphocytes; [6]): 7050 nM | IC50 (B2-CLL lymphocytes; [7]): 7050 nM | IC50 (LS 174T): 21500 nM | IC50 ([3]; HEK293, Table 4, MTS assay): 35600 nM | IC50 ([3]; HEK293, Table 6, MTS assay): 27400 nM | total RNA pol II [4]: essentially constant | IC50 (CK1δ/ε; Table 4): 4000 nM | IC50 (CK1δ/ε; Table 5): 11000 nM | IC50 (CDK1/cyclin B; Table 4, read-out: CDK1): 350 nM | IC50 (CDK1/cyclin B; [8]): 430 nM | IC50 (CDK2/cyclin E): 180 nM | IC50 (HCT116 (Spheroids)): 10000 nM | IC50 (CDK2/cyclin A): 300 nM | IC50 (DYRK1A): 2800 nM

CC[C@H](CO)Nc1cc(NCc2ccc(-c3ccccn3)cc2)c2ncn(C(C)C)c2n1 [(R)-perharidine C]
IC50 (GSK-3α/β; Table 5, read-out: GSK-3α/β): 11000 nM | total Rb [1]: essentially constant | inhibition of CDK2/4 in cells (retinoblastoma protein phosphorylation) ([1]; compared with (R)-Roscovitine): at lower concentrations than (R)-Roscovitine | p27 total protein down-regulation (p27 total protein): at lower concentration than (R)-Roscovitine | IC50 (CDK9/cyclin T): 530 nM | IC50 ([2]; Table 6, MTS assay): 1460 nM | IC50 (LS 174T (Oncodesign)): 290 nM | IC50 (Erk2): 22000 nM | IC50 (CDK5/p25; Table 5, read-out: CDK5/p25): 600 nM | IC50 (B2-CLL lymphocytes; [6]): 310 nM | IC50 (B2-CLL lymphocytes; [7]): 310 nM | IC50 (B2-CLL lymphocytes; LLC B-cells, read-out: Cell death induction): 280 nM | IC50 (HCT116 (Oncodesign)): 600 nM | inhibition of CDK1/cyclin B in cells (protein phosphatase 1-α Thr320 phosphorylation) [5]: at lower concentration than (R)-Roscovitine | inhibition of CDK9 in cells (RNA polymerase II Ser2 phosphorylation) ([4]; FIG. 9, compared with (R)-Roscovitine): at lower concentration than (R)-Roscovitine | total RNA pol II [4]: essentially constant | IC50 (CK1δ/ε; Table 5): 1100 nM | down-regulation of survival factor Mcl-1 (Mcl-1): at lower concentration than (R)-Roscovitine | IC50 (CDK1/cyclin B; [8]): 460 nM | IC50 (CDK2/cyclin E): 250 nM | IC50 (HCT116 (Spheroids)): 350 nM | IC50 (CDK2/cyclin A): 360 nM | p53 total protein expression (p53 total protein): at lower concentration than (R)-Roscovitine | PARP cleavage (PARP cleavage): at lower concentration than (R)-Roscovitine | IC50 (DYRK1A): 11000 nM

CC[C@@H](CO)Nc1cc(NCc2ccccc2)c2ncn(C(C)C)c2n1 [(S)-perharidine B, (S)-7-Benzylamino-5-[(2-butyl-1-ol)amino]-3-iso-propylimidazo[4,5-b]pyridine]
IC50 (GSK-3α/β; Table 5, read-out: GSK-3α/β): > 30000 nM | total Rb [1]: essentially constant | anti-proliferative activities compared with (R)-Roscovitine (cell lines): somewhat less efficient | IC50 (CDK9/cyclin T): 1300 nM | IC50 ([2]; Table 6, MTS assay): 28000 nM | IC50 (Erk2): 9000 nM | IC50 (CDK5/p25; Table 5, read-out: CDK5/p25): 500 nM | IC50 (B2-CLL lymphocytes; [6]): 15300 nM | IC50 (B2-CLL lymphocytes; [7]): 15300 nM | IC50 (LS 174T): 37500 nM | IC50 ([3]; HEK293, Table 6, MTS assay): 45000 nM | total RNA pol II [4]: essentially constant | IC50 (CK1δ/ε; Table 5): 4800 nM | IC50 (CDK1/cyclin B; [8]): 730 nM | IC50 (CDK2/cyclin E): 310 nM | IC50 (CDK2/cyclin A): 420 nM | IC50 (DYRK1A): 22000 nM
